Test results published in patent publication US8455497B2, “Inhibitors of aspartyl protease” (Vertex Pharmaceuticals Incorporated, priority 1999, dated 2013).

Tests used:
HIV-1 (strain IIIB) = assay: Antiviral activity assay in MT4 cells (propidium iodide based); type: cell-based; conditions: Human immunodeficiency virus 1, IIIB; wild type HIV-1 virus, MT4 cells; read-out: Wildtype virus - IC50
Procedure, shortened: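 Compound serial dilutions in RPMI/FCS received MT4 cells pre-infected 1 hr at 37°C with HIV-1 IIIB at 100×TCID50. After 5 days' culture and Nonidet-40 lysis, well DNA content was measured by propidium iodide dye; mock-infected cells served as control.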

[1] = tested on: D545701-14 multi protease inhibitor resistant virus; assay: Anti-viral activity against resistant virus D545701-14 in MT4 cells; type: cell-based, HIV-1; conditions: Human immunodeficiency virus 1, MT4, read-out: D545701-14 mutant - IC50, D545701-14 multi protease inhibitor resistant virus, MT4 cells
[2] = tested on: EP13 multi protease inhibitor resistant virus; assay: Anti-viral activity against resistant virus EP13 in MT4 cells; type: cell-based, HIV-1; conditions: Human immunodeficiency virus 1, MT4, read-out: EP13 mutant IC50, EP13 multi protease inhibitor resistant virus, MT4 cells
Procedure, shortened: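 MT4 cells infected for 1 h at 37 °C, MOI 100×TCID50, then diluted 6-fold onto pre-diluted compound and cultured 5 days (5% CO2). Viable-cell DNA content estimated by propidium iodide. EP13 carries protease mutations M46I, L63P, A71V, V82F/L, I84V, no RT mutations.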

| Structure (SMILES) | IC50 (HIV-1 (strain IIIB)) | IC50 [1] | IC50 [2] |
| --- | --- | --- | --- |
| CC(C)CN(C[C@@H](O)[C@H](Cc1ccc(OCCCO)cc1)NC(=O)O[C@H]1CO[C@H]2OCC[C@H]21)S(=O)(=O)c1ccc2c(c1)OCO2 [Compound 319, (3R,3aS,6aR)-Hexahydrofuro[2,3-b]furan-3-yl (1S,2R)-3-[(1,3-benzodioxol-5-ylsulfonyl)(isobutyl)amino]-2-hydroxy-1-[4-(3-hydroxypropoxy)benzyl]propylcarbamate] | 0.001 to 0.01 µM | 0.001 to 0.01 µM | 0.001 to 0.01 µM |
| CNC(=O)OCCCOc1ccc(C[C@H](NC(=O)O[C@H]2CO[C@H]3OCC[C@H]32)[C@H](O)CN(CC(C)C)S(=O)(=O)c2ccc3c(c2)OCO3)cc1 [Compound 320, (3R,3aS,6aR)-Hexahydrofuro[2,3-b]furan-3-yl (1S,2R)-3[(1,3-benzodioxol-5-ylsulfonyl)(isobutyl)amino]-2-hydroxy-1-[4-(3-{[(methylamino)carbonyl]oxy}propoxy)benzyl]propylcarbamate] | 0.001 to 0.01 µM | 0.001 to 0.01 µM | 0.001 to 0.01 µM |
| CC(C)CN(C[C@@H](O)[C@H](Cc1ccc(OCCCOC(N)=O)cc1)NC(=O)O[C@H]1CO[C@H]2OCC[C@H]21)S(=O)(=O)c1ccc2c(c1)OCO2 [Compound 321, (3R,3aS,6aR)-Hexahydrofuro[2,3-b]furan-3-yl (1S,2R)-1-(4-{3-[(aminocarbonyl)oxy]propoxy}benzyl)-3-[(1,3-benzodioxol-5-ylsulfonyl)(isobutyl)amino]-2-hydroxypropylcarbamate] | 0.001 to 0.01 µM | 0.001 to 0.01 µM | 0.001 to 0.01 µM |
| CC(C)CN(C[C@@H](O)[C@H](Cc1ccc(OCCO)cc1)NC(=O)O[C@H]1CO[C@H]2OCC[C@H]21)S(=O)(=O)c1ccc2c(c1)OCO2 [Compound 322, (3R,3aS,6aR)-Hexahydrofuro[2,3-b]furan-3-yl (1S,2R)-3-[(1,3-benzodioxol-5-ylsulfonyl)(isobutyl)amino]-2-hydroxy-1-[4-(2-hydroxyethoxy)benzyl]propylcarbamate] | 0.001 to 0.01 µM | 0.001 to 0.01 µM | 0.001 to 0.01 µM |
| CNC(=O)OCCOc1ccc(C[C@H](NC(=O)O[C@H]2CO[C@H]3OCC[C@H]32)[C@H](O)CN(CC(C)C)S(=O)(=O)c2ccc3c(c2)OCO3)cc1 [Compound 323, (3R,3aS,6aR)-Hexahydrofuro[2,3-b]furan-3-yl (1S,2R)-3-[(1,3-benzodioxol-5-ylsulfonyl)(isobutyl)amino]-2-hydroxy-1-[4-(2-{[(methylamino)carbonyl]oxy}ethoxy)benzyl]propylcarbamate] | 0.001 to 0.01 µM | 0.001 to 0.01 µM | 0.001 to 0.01 µM |
| CC(C)CN(C[C@@H](O)[C@H](Cc1ccc(OCCN2CCSC2)cc1)NC(=O)O[C@H]1CO[C@H]2OCC[C@H]21)S(=O)(=O)c1ccc2c(c1)OCO2 [Compound 324, (3R,3aS,6aR)-Hexahydrofuro[2,3-b]furan-3-yl (1S,2R)-3-[(1,3-benzodioxol-5-ylsulfonyl)(isobutyl)amino]-2-hydroxy-1-{4-[2-(1,3-thiazolidin-3-yl)ethoxy]benzyl}propylcarbamate] | 0.001 to 0.01 µM | 0.001 to 0.01 µM | 0.001 to 0.01 µM |
| CCOC(=O)COc1ccc(C[C@H](NC(=O)O[C@H]2CO[C@H]3OCC[C@H]32)[C@H](O)CN(CC(C)C)S(=O)(=O)c2ccc3c(c2)OCO3)cc1 [Compound 326, Ethyl (4-{(2S,3R)-2-({[(3R,3aS,6aR)-hexahydrofuro[2,3-b]furan-3-yloxy]carbonyl}amino)-4-[(1,3-benzodioxol-5-ylsulfonyl)(isobutyl)amino]-3-hydroxybutyl}phenoxy) acetate] | 0.001 to 0.01 µM | 0.01 to 0.1 µM | 0.01 to 0.1 µM |
| CCC(CC)ON(C[C@@H](O)[C@H](Cc1ccc(OCc2ccccc2)cc1)NC(=O)O[C@H]1CO[C@H]2OCC[C@H]21)S(=O)(=O)c1ccc2c(c1)OCO2 [Compound 329, (3R,3aS,6aR)-Hexahydrofuro[2,3-b]furan-3-yl (1S,2R)-3-[(1,3-benzodioxol-5-ylsulfonyl)(1-ethylpropoxy)amino]-1-[4-(benzyloxy)benzyl]-2-hydroxypropylcarbamate] | 0.001 to 0.01 µM | 0.01 to 0.1 µM | 0.01 to 0.1 µM |
| CC(C)CN(C[C@@H](O)[C@H](Cc1ccc(OC(=N)N(C)C)cc1)NC(=O)O[C@H]1CO[C@H]2OCC[C@H]21)S(=O)(=O)c1ccc2c(c1)OCO2 [Compound 331, (3R,3aS,6aR)-Hexahydrofuro[2,3-b]furan-3-yl (1S,2R)-3-[(1,3-benzodioxol-5-ylsulfonyl)(isobutyl)amino]-1-{4-[(dimethylamino) (imino)methoxy]benzyl}-2-hydroxypropylcarbamate] | 0.01 to 0.1 µM | 0.01 to 0.1 µM | 0.01 to 0.1 µM |
| CC(C)CN(C[C@@H](O)[C@H](Cc1ccc(Oc2nc(F)c(F)c(F)c2F)cc1)NC(=O)O[C@H]1CO[C@H]2OCC[C@H]21)S(=O)(=O)c1ccc2c(c1)OCO2 [Compound 332, (3R,3aS,6aR)-hexahydrofuro[2,3-b]furan-3-yl (1S,2R)-3-[(1,3-benzodioxol-5-ylsulfonyl)(isobutyl)amino]-2-hydroxy-1-{4-[(3,4,5,6-tetrafluoro-2-pyridinyl)oxy]benzyl}propylcarbamate] | 0.001 to 0.01 µM | 0.01 to 0.1 µM | 0.001 to 0.01 µM |
| CC(C)CN(C[C@@H](O)[C@H](Cc1ccc(Oc2ccc([N+](=O)[O-])cn2)cc1)NC(=O)O[C@H]1CO[C@H]2OCC[C@H]21)S(=O)(=O)c1ccc2c(c1)OCO2 [Compound 333, (3R,3aS,6aR)-hexahydrofuro[2,3-b]furan-3-yl (1S,2R)-3-[(1,3-benzodioxol-5-ylsulfonyl)(isobutyl)amino]-2-hydroxy-1-{4-[(5-nitro-2-pyridinyl)oxy]benzyl}propylcarbamate] | 0.001 to 0.01 µM | 0.001 to 0.01 µM | 0.001 to 0.01 µM |
| CC(C)CN(C[C@@H](O)[C@H](Cc1ccc(Oc2c(C(=O)O)cc([N+](=O)[O-])cc2[N+](=O)[O-])cc1)NC(=O)O[C@H]1CO[C@H]2OCC[C@H]21)S(=O)(=O)c1ccc2c(c1)OCO2 [Compound 334, 2-(4-{(2S,3R)-2-({[(3R,3aS,6aR)-hexahydrofuro[2,3-b]furan-3-yloxy]carbonyl}amino)-4-[(1,3-benzodioxol-5-ylsulfonyl)(isobutyl)amino]-3-hydroxybutyl}phenoxy)-3,5-dinitrobenzoic Acid] | 0.001 to 0.01 µM | 0.001 to 0.01 µM | 0.001 to 0.01 µM |
| CC(C)CN(C[C@@H](O)[C@H](Cc1ccc(Oc2ccc(C#N)cn2)cc1)NC(=O)O[C@H]1CO[C@H]2OCC[C@H]21)S(=O)(=O)c1ccc2c(c1)OCO2 [Compound 335, (3R,3aS,6aR)-hexahydrofuro[2,3-b]furan-3-yl (1S,2R)-3-[(1,3-benzodioxol-5-ylsulfonyl)(isobutyl)amino]-1-{4-[(S-cyano-2-pyridinyl)oxy]benzyl}-2-hydroxypropylcarbamate] | 0.001 to 0.01 µM | 0.001 to 0.01 µM | 0.001 to 0.01 µM |
| CC(C)CN(C[C@@H](O)[C@H](Cc1ccc(Oc2ccc([N+](=O)[O-])cc2[N+](=O)[O-])cc1)NC(=O)O[C@H]1CO[C@H]2OCC[C@H]21)S(=O)(=O)c1ccc2c(c1)OCO2 [Compound 336, (3R,3aS,6aR)-hexahydrofuro[2,3-b]furan-3-yl (1S,2R)-3-[(1,3-benzodioxol-5-ylsulfonyl)(isobutyl)amino]-1-[4-(2,4-dinitrophenoxy)benzyl]-2-hydroxypropylcarbamate] | 0.001 to 0.01 µM | 0.001 to 0.01 µM | 0.001 to 0.01 µM |
